We go through three compounds from patent US11401271B2, “Fused heterocyclic compound, pyrazole-ring-containing fused heterocyclic compound, agricultural composition containing thereof, and method of using the composition” (SOUTH CHINA AGRICULTURAL UNIVERSITY, priority 2017, dated 2022).

In the first data set the test system is Plutella xylostella. Nature of the data set: whole plant or invertebrate. The class given is in vivo. To be noted: Plutella xylostella, read-out: Plutella xylostella Mortality (%) 500 ppm. A digest of the protocol: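 Cabbage leaf discs dipped 5 s in compound at 500 ppm (0.05% Tween-80 aqueous), air-dried, fed to about 35 2nd-instar larvae at 28° C., triplicate. Dead larvae counted after 24 h; mortality (%) corrected against Tween-80 control.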
Broadly, the mortality is the percentage killed. For `C=CC1(C=C)Nc2c(Br)c(CC)nn2-c2c(Cl)cc(C(F)(F)F)cc21` [Compound C61], the mortality at 500 ppm is 88%.

As to `C=CC1(C=C)Nc2c(-c3cc(C)sc3C)c(CC)nn2-c2c(Cl)cc(C(F)(F)F)cc21` [Compound C62], the mortality at 500 ppm was determined as 80%.

As for `CCc1nn2c(c1-c1cc(C)sc1C)NC(/C=C\C(=O)OC)(/C=C/C(=O)OC)c1cc(C(F)(F)F)cc(Cl)c1-2` (stereo not drawn) [Compound C64], the mortality at 500 ppm was 92%.

The subject of another data set is Apis cernan. The experiment in a line: Toxicity test on adult worker bees of Apis cernan, small beaker method. The class given is in vivo. The conditions noted are these: 500 ppm, 48 hours. A digest of the protocol:
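Same-size adult Apis cernan workers, collected the test morning, exposed in groups of 15 to cotton soaked with 500 ppm test liquid (small beaker method). Kept sealed in a dark climate box; live and dead bees counted after 48 h.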
With `C=CC1(C=C)Nc2c(Br)c(CC)nn2-c2c(Cl)cc(C(F)(F)F)cc21` [Compound C61], the “Toxicity determination Apis cernan Mortality (%)” value worked out at 10%.

`C=CC1(C=C)Nc2c(-c3cc(C)sc3C)c(CC)nn2-c2c(Cl)cc(C(F)(F)F)cc21` [Compound C62]: the “Toxicity determination Apis cernan Mortality (%)” value came out at 11%.

In the case of `CCc1nn2c(c1-c1cc(C)sc1C)NC(/C=C\C(=O)OC)(/C=C/C(=O)OC)c1cc(C(F)(F)F)cc(Cl)c1-2` (stereo not drawn) [Compound C64], the “Toxicity determination Apis cernan Mortality (%)” value stood at 9%.

The test system of another data set is Bombyx mori L. The experiment in a line: Toxicity test on 2nd-instar larvae of Bombyx mori L., leaf immersion feeding method. The format is in vivo. The conditions noted are these: 1000 ppm, 24 hours. A digest of the protocol: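 Second-instar silkworm larvae (~35 per vessel, 3 replicates) fed mulberry leaves dipped 5 s in 1000 ppm compound (0.05% Tween-80; DMSO stock diluted), held at 25 °C. Deaths counted after 24 hours; mortality % corrected against Tween-80 control survivors.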
Regarding `C=CC1(C=C)Nc2c(Br)c(CC)nn2-c2c(Cl)cc(C(F)(F)F)cc21` [Compound C61], the “Toxicity determination Bombyx mori L. Mortality (%)” value came to 9%.

For `C=CC1(C=C)Nc2c(-c3cc(C)sc3C)c(CC)nn2-c2c(Cl)cc(C(F)(F)F)cc21` [Compound C62], the “Toxicity determination Bombyx mori L. Mortality (%)” value is on record as 10%.

With `CCc1nn2c(c1-c1cc(C)sc1C)NC(/C=C\C(=O)OC)(/C=C/C(=O)OC)c1cc(C(F)(F)F)cc(Cl)c1-2` (stereo not drawn) [Compound C64], the “Toxicity determination Bombyx mori L. Mortality (%)” value is reported as 7%.

The subject of the next data set is Solenopsis invicta. Nature of the data set: whole plant or invertebrate. The class given is in vivo. To be noted: Solenopsis invicta, 24 h, read-out: Solenopsis invicta Mortality (%) 100 ppm 24 h, 100 ppm; 24 h; water test tube poison-feeding. A digest of the protocol:
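Fire ants fed compound by water test-tube poison-feeding at 100 ppm in aqueous 0.05% Tween-80/5% honey (from 10 g/L DMSO stock), kept at 25 °C. Live and dead ants counted at 24 and 72 h; mortality (%) calculated relative to live ants in the untreated control.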
`C=CC1(C=C)Nc2c(Br)c(CC)nn2-c2c(Cl)cc(C(F)(F)F)cc21` [Compound C61]: the mortality at 100 ppm stood at 28%.

`C=CC1(C=C)Nc2c(-c3cc(C)sc3C)c(CC)nn2-c2c(Cl)cc(C(F)(F)F)cc21` [Compound C62]: the mortality at 100 ppm was 27%.

For `CCc1nn2c(c1-c1cc(C)sc1C)NC(/C=C\C(=O)OC)(/C=C/C(=O)OC)c1cc(C(F)(F)F)cc(Cl)c1-2` (stereo not drawn) [Compound C64], the mortality at 100 ppm amounted to 17%.

The data set is the same for the next values; noted with them: Solenopsis invicta, 72 h, read-out: Solenopsis invicta Mortality (%) 100 ppm 72 h, 100 ppm; 72 h; water test tube poison-feeding.
`C=CC1(C=C)Nc2c(Br)c(CC)nn2-c2c(Cl)cc(C(F)(F)F)cc21` [Compound C61]: the mortality at 100 ppm was found to be 100%.

Consider `C=CC1(C=C)Nc2c(-c3cc(C)sc3C)c(CC)nn2-c2c(Cl)cc(C(F)(F)F)cc21` [Compound C62], for which the mortality at 100 ppm is 100%.

Take `CCc1nn2c(c1-c1cc(C)sc1C)NC(/C=C\C(=O)OC)(/C=C/C(=O)OC)c1cc(C(F)(F)F)cc(Cl)c1-2` (stereo not drawn) [Compound C64]: the mortality at 100 ppm turned out to be 90%.

In another data set the test system is Aphis craccivora. The experiment in a line: whole plant or invertebrate. The format is in vivo. To be noted: Aphis craccivora, 24 h, read-out: Aphis craccivora Mortality (%) 500 ppm. The method in brief: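 Wingless adults feeding on bean sprouts were dipped with the sprouts for 5 s in 500 ppm compound in aqueous 0.05% Tween-80, air-dried, then held at 23° C. Dead aphids counted after 24 h, triplicate, with 0.05% Tween-80 as control. Mortality (%) = (control live − treated live)/control live × 100.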
In the case of `C=CC1(C=C)Nc2c(Br)c(CC)nn2-c2c(Cl)cc(C(F)(F)F)cc21` [Compound C61], the mortality at 500 ppm came to 90%.

On to `C=CC1(C=C)Nc2c(-c3cc(C)sc3C)c(CC)nn2-c2c(Cl)cc(C(F)(F)F)cc21` [Compound C62], for which the mortality at 500 ppm turned out to be 97%.

In the case of `CCc1nn2c(c1-c1cc(C)sc1C)NC(/C=C\C(=O)OC)(/C=C/C(=O)OC)c1cc(C(F)(F)F)cc(Cl)c1-2` (stereo not drawn) [Compound C64], the mortality at 500 ppm turned out to be 100%.

Another data set concerns Spodoptera exigua. Nature of the data set: whole plant or invertebrate. To be noted: Spodoptera exigua, 24 h, read-out: Spodoptera exigua Mortality (%) 500 ppm. The class given is in vivo. A digest of the protocol: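 Cabbage leaf discs dipped 5 s in 500 ppm compound (0.05% Tween-80 aqueous), air-dried, fed to about 35 2nd-instar larvae at 28° C, three replicates. Deaths counted at 24 h; mortality corrected against Tween-80 control.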
`C=CC1(C=C)Nc2c(Br)c(CC)nn2-c2c(Cl)cc(C(F)(F)F)cc21` [Compound C61]: the mortality at 500 ppm amounted to 100%.

Turning to `C=CC1(C=C)Nc2c(-c3cc(C)sc3C)c(CC)nn2-c2c(Cl)cc(C(F)(F)F)cc21` [Compound C62], the mortality at 500 ppm was determined as 85%.

For `CCc1nn2c(c1-c1cc(C)sc1C)NC(/C=C\C(=O)OC)(/C=C/C(=O)OC)c1cc(C(F)(F)F)cc(Cl)c1-2` (stereo not drawn) [Compound C64], the mortality at 500 ppm was determined as 97%.
